Data reported in patent publication US20080227780A1, “SOLUBLE EPOXIDE HYDROLASE INHIBITORS” (Arete Therapeutics, Inc., priority 2007, published 2008).
Each block holds one molecule with its values, some of them ahead of it.

System: soluble epoxide hydrolase (sEH)
Assay: Fluorescent assay for soluble epoxide hydrolase (CMNPC substrate), percent inhibition at the recited concentration
Format: biochemical
Procedure, shortened: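 Purified recombinant baculovirus-expressed sEH in 25 mM Bis/Tris HCl pH 7.0 with 0.1 mg/mL BSA; inhibitor serially diluted and preincubated with enzyme 5 min at 30 °C. Reaction started with 5 μM (final) substrate; fluorescence (ex 330/em 465 nm) read every 30 s for 10 min, and velocities give % inhibition.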

Structure (SMILES): CC(=O)N1CCC(NC(=O)NCc2ccc(C(F)(F)F)cc2)CC1 [Compound 1-3, 1-(1-acetylpiperidin-4-yl)-3-(4-(trifluoromethyl)benzyl)urea]
- % inh. (Inhibition Conc. 200 nM): 93%

Structure (SMILES): Cc1nc2ccc(NC(=O)NC3CCN(C(=O)OC(C)(C)C)CC3)cc2s1 [Compound 6-14, tert-butyl 4-(3-(2-methylbenzo[d]thiazol-6-yl)ureido)piperidine-1-carboxylate]
- % inh. (Inhibition Conc. 200 nM): 77%

Structure (SMILES): CC(=O)N1CCC(NC(=O)NC23CC4CC(C2)C(O)C(C4)C3)CC1 (single isomer, unassigned) [Compound 3-5, 1-(1-acetylpiperidin-4-yl)-3-(4-hydroxyadamant-1-yl)urea]
- % inh. (Inhibition Conc. 5000 nM): 87%

Structure (SMILES): CC(=O)N1CCC(NC(=O)NC2CCC3CCCCC3C2)CC1 (stereo not shown) [Compound 7-5, 1-(1-acetylpiperidin-4-yl)-3-(decahydronaphthalen-2-yl)urea]
- % inh. (Inhibition Conc. 50 nM): 93%

Structure (SMILES): COC(=O)c1ccc(NC(=O)NC2CCN(C(=O)OC(C)(C)C)CC2)o1 [Compound 6-18, tert-butyl 4-(3-(5-(methoxycarbonyl)furan-2-yl)ureido)piperidine-1-carboxylate]
- % inh. (Inhibition Conc. 2000 nM): 89%

Structure (SMILES): CNS(=O)(=O)c1ccc(C(=O)N2CCC(NC(=O)Nc3ccc(C(F)(F)F)cc3)CC2)cc1 [Compound 4-7, 4-(4-(3-(4-(trifluoromethyl)phenyl)ureido)piperidine-1-carbonyl)-N-methylbenzene-sulfonamide]
- % inh. (Inhibition Conc. 50 nM): 92%

Structure (SMILES): CC(C)(C)OC(=O)N1CCC(NC(=O)NC2CCCC2)CC1 [Compound 7-17, tert-butyl 4-(3-cyclopentylureido)-piperidine-1-carboxylate]
- % inh. (Inhibition Conc. 500 nM): 85%

Structure (SMILES): COC(=O)c1ccc(NC(=O)NC2CCN(C(=O)OC(C)(C)C)CC2)s1 [Compound 6-17, tert-butyl 4-(3-(5-(methoxycarbonyl)thiophen-2-yl)ureido)piperidine-1-carboxylate]
- % inh. (Inhibition Conc. 200 nM): 87%

Structure (SMILES): CC(=O)N1CCC(NC(=O)NC23CC4CC(C2)C(F)C(C4)C3)CC1 (stereo not shown) [Compound 3-11, 1-(1-acetylpiperidin-4-yl)-3-(4-fluoroadamantyl)urea]
- % inh. (Inhibition Conc. 200 nM): 88%

Structure (SMILES): Cc1nc(C(=O)N2CCC(NC(=O)NC34CC5CC(CC(C5)C3)C4)CC2)c(C)o1 [Compound 7-8, 1-(1-adamantyl)-3-(1-(2,5-dimethyloxazole-4-carbonyl)piperidin-4-yl)urea]
- % inh. (Inhibition Conc. 50 nM): 89%

Structure (SMILES): CC(C)(C)OC(=O)N1CCC(NC(=O)Nc2ccncc2)CC1 [Compound 6-3, tert-butyl 4-(3-pyridin-4-yl-ureido)piperidine-1-carboxylate]
- % inh. (Inhibition Conc. 5000 nM): 81%

Structure (SMILES): CCOC(=O)N1CCC(NC(=O)Nc2ccc(C(F)(F)F)cc2)CC1 [Compound 7-15, ethyl 4-(3-(4-(trifluoromethyl)phenyl)ureido)piperidine-1-carboxylate]
- % inh. (Inhibition Conc. 50 nM): 93%

Structure (SMILES): COC(=O)c1ccc(CNC(=O)NC2CCN(C(C)=O)CC2)cc1 [Compound 1-8, methyl 4-((3-(1-acetylpiperidin-4-yl)ureido)methyl)benzoate]
- % inh. (Inhibition Conc. 2000 nM): 95%

Structure (SMILES): COC(=O)c1ccc(NC(=O)NC2CCN(C(C)=O)CC2)s1 [Compound 6-16, methyl 5-(3-(1-acetylpiperidin-4-yl)ureido)thiophene-2-carboxylate]
- % inh. (Inhibition Conc. 2000 nM): 78%

Structure (SMILES): CC(=O)N1CCC(NC(=O)Nc2ccncc2)CC1 [Compound 6-7, 1-(1-acetyl-piperidin-4-yl)-3-(pyridin-4-yl)urea]
- % inh. (Inhibition Conc. 50000 nM): 53%

The remaining lines, values ahead:

- % inh. (Inhibition Conc. 200 nM): 83%
Structure (SMILES): CC(C)(C)OC(=O)N1CCC(NC(=O)Nc2ccc(S(C)(=O)=O)cc2)CC1 [Compound 7-49, tert-butyl 4-(3-(4-(methylsulfonyl)phenyl)ureido)piperidine-1-carboxylate]

- % inh. (Inhibition Conc. 50 nM): 86%
Structure (SMILES): CN(C)C(=O)N1CCC(NC(=O)Nc2ccc(C(F)(F)F)cc2)CC1 [Compound 7-21, N,N-dimethyl-4-(3-(4-(trifluoromethyl)phenyl)-ureido)piperidine-1-carboxamide]

- % inh. (Inhibition Conc. 2000 nM): 44%
Structure (SMILES): CC(=O)N1CCC(NC(=O)Nc2ccc(N(C)C)cc2)CC1 [Compound 7-52, 1-(1-acetylpiperidin-4-yl)-3-(4-(dimethylamino)phenyl)urea]

- % inh. (Inhibition Conc. 200 nM): 100%
Structure (SMILES): O=C(Nc1ccc(OC(F)(F)F)cc1)NC1CCN(S(=O)(=O)CCCO)CC1 [Compound 7-75, 1-(1-(3-hydroxypropylsulfonyl)piperidin-4-yl)-3-(4-(trifluoromethoxy)phenyl)urea]

- % inh. (Inhibition Conc. 50 nM): 95%
Structure (SMILES): CC(C)OC(=O)N1CCC(NC(=O)Nc2ccc(C(F)(F)F)cc2)CC1 [Compound 7-20, isopropyl 4-(3-(4-(trifluoromethyl)phenyl)ureido)piperidine-1-carboxylate]

- % inh. (Inhibition Conc. 200 nM): 95%
Structure (SMILES): O=C(NC1CCN(C(=O)N2CCOCC2)CC1)NC12CC3CC(CC(C3)C1)C2 [Compound 7-82, 1-adamantyl-3-(1-(morpholine-4-carbonyl)piperidin-4-yl)urea]

- % inh. (Inhibition Conc. 2000 nM): 69%
Structure (SMILES): CC(=O)N1CCC(NC(=O)NC2CCN(C(=O)C(C)(C)C)CC2)CC1 [Compound 8-6, 1-(1-acetylpiperidin-4-yl)-3-(1-pivaloylpiperidin-4-yl)urea]
